PMC2075511, “Molecular evolution of type VI intermediate filament proteins” (BMC Evolutionary Biology, 2007)

Biological target: T1, HR domain of chicken transitin (HR) (Gallus gallus, UniProt Q90831)
T1 construct: entire C-terminal heptad repeat (HR) domain, more than 50 LQVEHGD repeats; T7- or His-tag fusion protein, expressed in bacteria
Test: malachite green phosphate release
Type: biochemical
Settings: 10 mM MgCl2, pH 7.5, 25°C

T1 sequence (Q90831 323-1840 limits assumed): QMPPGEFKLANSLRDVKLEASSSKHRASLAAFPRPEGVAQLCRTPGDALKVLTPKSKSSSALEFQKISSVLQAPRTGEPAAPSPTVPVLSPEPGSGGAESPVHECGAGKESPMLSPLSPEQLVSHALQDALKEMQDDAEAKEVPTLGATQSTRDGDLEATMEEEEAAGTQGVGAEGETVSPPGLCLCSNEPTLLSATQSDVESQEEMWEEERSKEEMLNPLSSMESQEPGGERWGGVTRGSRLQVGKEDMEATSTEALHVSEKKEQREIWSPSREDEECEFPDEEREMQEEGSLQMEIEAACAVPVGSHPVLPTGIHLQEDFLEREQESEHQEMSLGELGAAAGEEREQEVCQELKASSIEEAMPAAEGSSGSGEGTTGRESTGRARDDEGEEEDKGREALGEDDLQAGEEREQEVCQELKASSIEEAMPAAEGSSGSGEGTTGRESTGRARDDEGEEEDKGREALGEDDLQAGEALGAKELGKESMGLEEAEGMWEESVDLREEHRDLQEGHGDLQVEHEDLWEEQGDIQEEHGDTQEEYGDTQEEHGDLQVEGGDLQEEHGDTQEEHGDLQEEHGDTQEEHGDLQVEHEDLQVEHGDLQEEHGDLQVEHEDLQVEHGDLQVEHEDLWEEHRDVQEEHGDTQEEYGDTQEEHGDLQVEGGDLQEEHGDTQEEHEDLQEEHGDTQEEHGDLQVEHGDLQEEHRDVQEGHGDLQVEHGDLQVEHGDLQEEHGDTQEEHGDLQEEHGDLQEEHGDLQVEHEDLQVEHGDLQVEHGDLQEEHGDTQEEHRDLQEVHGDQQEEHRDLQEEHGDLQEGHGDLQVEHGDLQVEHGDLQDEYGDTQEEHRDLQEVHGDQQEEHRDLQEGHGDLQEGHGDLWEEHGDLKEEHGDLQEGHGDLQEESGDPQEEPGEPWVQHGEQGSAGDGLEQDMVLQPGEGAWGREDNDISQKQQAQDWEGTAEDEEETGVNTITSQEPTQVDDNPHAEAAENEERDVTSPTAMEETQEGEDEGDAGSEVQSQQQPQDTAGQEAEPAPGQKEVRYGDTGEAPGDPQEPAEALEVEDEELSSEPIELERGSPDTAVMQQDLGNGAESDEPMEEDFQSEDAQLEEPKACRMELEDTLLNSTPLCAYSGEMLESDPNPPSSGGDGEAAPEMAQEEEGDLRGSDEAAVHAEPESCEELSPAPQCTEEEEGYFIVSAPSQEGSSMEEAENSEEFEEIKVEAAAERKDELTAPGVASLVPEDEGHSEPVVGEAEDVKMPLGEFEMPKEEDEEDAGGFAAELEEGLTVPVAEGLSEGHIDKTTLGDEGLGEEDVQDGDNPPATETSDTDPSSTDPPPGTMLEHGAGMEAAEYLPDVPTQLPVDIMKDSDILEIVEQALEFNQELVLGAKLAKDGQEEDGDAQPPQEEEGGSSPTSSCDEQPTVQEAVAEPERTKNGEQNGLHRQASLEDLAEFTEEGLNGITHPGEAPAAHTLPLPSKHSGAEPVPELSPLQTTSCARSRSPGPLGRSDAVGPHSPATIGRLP

SMILES	malachite green phosphate release (1 mM ATP)	malachite green phosphate release (1 mM GTP)
Nc1ncnc2c1ncn2[C@@H]1O[C@H](COP(=O)(O)OP(=O)(O)OP(=O)(O)O)[C@@H](O)[C@H]1O [ATP]	The HR domain of transitin has ATPase (Fig. 4a) as well as GTPase (Fig. 4b) activity	
Nc1nc2c(ncn2[C@@H]2O[C@H](COP(=O)(O)OP(=O)(O)OP(=O)(O)O)[C@@H](O)[C@H]2O)c(=O)[nH]1 [GTP]		The HR domain of transitin has ATPase (Fig. 4a) as well as GTPase (Fig. 4b) activity
